Reference: patent publication US11866450B2, “Modulators of Cystic Fibrosis Transmembrane Conductance regulator, pharmaceutical compositions, methods of treatment, and process for making the modulators” (priority 2018, dated 2024)
pEC50: −log10 of the molar value. Read-outs that look alike come from different tables or passages of the source.

Tests used:
[1] = snar bond, DMSO
[2] = biological target: CFTR-mediated chloride transport (Homo sapiens, UniProt P13569); format: cell-based; details: enteroid cells incubated with test compound 18-24 hours, acute 10 μM forskolin and 300 nM Compound III; for Max. Activity: % of chloride transport with 3 μM Compound A, 3 μM Compound II and 300 nM acute Compound III triple combination control
Chain of CFTR-mediated chloride transport (P13569 whole entry, looked up): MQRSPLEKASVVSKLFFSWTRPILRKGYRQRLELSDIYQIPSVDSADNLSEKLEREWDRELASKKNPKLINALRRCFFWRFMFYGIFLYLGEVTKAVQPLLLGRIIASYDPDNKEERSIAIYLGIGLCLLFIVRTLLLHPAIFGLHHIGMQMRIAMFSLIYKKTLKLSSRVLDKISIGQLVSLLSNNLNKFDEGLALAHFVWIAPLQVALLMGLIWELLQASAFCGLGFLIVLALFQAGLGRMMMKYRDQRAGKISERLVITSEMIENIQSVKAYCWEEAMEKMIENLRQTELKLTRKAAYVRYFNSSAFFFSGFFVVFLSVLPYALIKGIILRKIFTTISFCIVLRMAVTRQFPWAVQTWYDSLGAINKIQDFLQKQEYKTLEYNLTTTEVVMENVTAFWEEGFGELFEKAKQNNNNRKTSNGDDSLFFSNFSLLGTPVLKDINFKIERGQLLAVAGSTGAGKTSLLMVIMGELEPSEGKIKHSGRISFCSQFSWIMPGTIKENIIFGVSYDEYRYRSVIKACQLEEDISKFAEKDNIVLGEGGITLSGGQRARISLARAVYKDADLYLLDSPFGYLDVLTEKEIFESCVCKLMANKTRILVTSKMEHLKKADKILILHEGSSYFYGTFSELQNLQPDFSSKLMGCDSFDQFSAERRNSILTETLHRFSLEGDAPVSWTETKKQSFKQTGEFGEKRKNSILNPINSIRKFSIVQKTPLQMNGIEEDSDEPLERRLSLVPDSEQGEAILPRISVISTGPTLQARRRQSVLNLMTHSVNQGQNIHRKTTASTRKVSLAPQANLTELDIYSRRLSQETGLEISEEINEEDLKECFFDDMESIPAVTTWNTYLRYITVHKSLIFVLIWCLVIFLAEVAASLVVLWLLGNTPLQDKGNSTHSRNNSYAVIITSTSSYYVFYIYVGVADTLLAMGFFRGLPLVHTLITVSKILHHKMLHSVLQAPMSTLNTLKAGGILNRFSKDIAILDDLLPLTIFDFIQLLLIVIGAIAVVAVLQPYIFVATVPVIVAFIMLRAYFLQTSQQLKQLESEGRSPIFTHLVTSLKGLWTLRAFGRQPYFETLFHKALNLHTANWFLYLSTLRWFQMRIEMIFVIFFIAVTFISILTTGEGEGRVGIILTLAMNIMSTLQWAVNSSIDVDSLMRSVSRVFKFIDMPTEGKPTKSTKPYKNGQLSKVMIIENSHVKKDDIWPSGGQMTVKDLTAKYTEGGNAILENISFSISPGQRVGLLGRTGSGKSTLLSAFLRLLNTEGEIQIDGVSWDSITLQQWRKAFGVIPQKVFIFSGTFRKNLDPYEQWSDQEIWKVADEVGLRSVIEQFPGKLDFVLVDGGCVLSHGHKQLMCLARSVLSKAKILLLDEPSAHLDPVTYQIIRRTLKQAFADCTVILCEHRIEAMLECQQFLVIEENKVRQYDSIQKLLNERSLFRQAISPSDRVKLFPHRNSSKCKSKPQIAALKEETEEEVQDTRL
How it was run: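 Membrane-potential fluorescence AUC over 15 min quantified CFTR chloride transport after acute forskolin (10 μM), IBMX (100 μM) and Compound III (300 nM) in chloride-free buffer. Human enteroid cells were pretreated with compound for 18–24 h; % Activity is relative to 3 μM Compound A + 3 μM Compound II + 300 nM Compound III.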

## CC1(C)C[C@@H]2CCCNc3cccc(n3)S(=O)(=O)NC(=O)c3ccc(-n4cccc(OCCC5(C(F)(F)F)CC5)c4=O)nc3N1C2 [Compound 268, (14S)-12,12-Dimethyl-8-(2-oxo-3-{2-[1-(trifluoromethyl)cyclopropyl]ethoxy}-1,2-dihydropyridin-1-yl)-2λ^6-thia-3,9,11,18,23-pentaazatetracyclo[17.3.1.111,14.05,10]tetracosa-1(23),5(10),6,8,19,21-hexaene-2,2,4-trione]
[1]; from CC(C)(C)OC(=O)N1C[C@@H](CCCNc2cccc(S(=O)(=O)NC(=O)c3ccc(-n4cccc(OCCC5(C(F)(F)F)CC5)c4=O)nc3Cl)n2)CC1(C)C, 15-membered ring, K2CO3/CsF/3A MS, 12.0 mM, 150.0 °C, 2 steps
  ring closure, yield after HPLC: 49%
[2]
  pEC50: < 5.52
  Max. Activity: ++ (++ is 30-60%)

## CC1(C)CC2CCCCNc3ccc(cn3)S(=O)(=O)NC(=O)c3ccc(-n4ccc(OCCC(C5CC5)C5CC5)n4)nc3N1C2 (stereo not drawn) [Compound 130, 8-[3-(3,3-Dicyclopropylpropoxy)-1H-pyrazol-1-yl]-12,12-dimethyl-2λ^6-thia-3,9,11,19,21-pentaazatetracyclo[18.2.2.111,14.05,10]pentacosa-1(22),5,7,9,20,23-hexaene-2,2,4-trione]
[1]; from CC(C)(C)OC(=O)N1CC(CCCCNc2ccc(S(=O)(=O)NC(=O)c3ccc(-n4ccc(OCCC(C5CC5)C5CC5)n4)nc3Cl)cn2)CC1(C)C, 17-membered ring, K2CO3/CsF/3A MS, 107.7 mM, 160.0 °C, 2 steps
  ring closure, yield after HPLC: 15%
[2]
  pEC50: > 6.00
  Max. Activity: +++ (+++ is >60%)

## CC1(C)CC2CN1c1nc(-n3ccc(OCCC4(C(F)(F)F)CC4)n3)ccc1C(=O)NS(=O)(=O)c1cccc(n1)N2 (stereo not drawn) [Compound 31, 5,5-dimethyl-9-(3-{2-[1-(trifluoromethyl)cyclopropyl]ethoxy}-1H-pyrazol-1-yl)-15λ^6-thia-2,6,8,14,20-pentaazatetracyclo[14.3.1.13,6.07,12]henicosa-1(20),7,9,11,16,18-hexaene-13,15,15-trione]
[1]; from 2-chloro-N-[[6-[(5,5-dimethylpyrrolidin-3-yl)amino]-2-pyridyl]sulfonyl]-6-[3-[2-[1-(trifluoromethyl)cyclopropyl]ethoxy]pyrazol-1-yl]pyridine-3-carboxamide (dihydrochloride salt), 12-membered ring, K2CO3/CsF/4A MS, 10.5 mM, 150.0 °C
  ring closure, yield after HPLC: 37%
[2]
  pEC50: < 5.52
  Max. Activity: + (+ is <30%)

## CC1(C)C[C@@H]2CCCNc3cccc(n3)S(=O)(=O)NC(=O)c3ccc(-n4ccc(OCCC(C)(C)C(F)(F)F)n4)nc3N1C2 [Compound 212, (14S)-12,12-Dimethyl-8-[3-(4,4,4-trifluoro-3,3-dimethylbutoxy)-1H-pyrazol-1-yl]-2λ^6-thia-3,9,11,18,23-pentaazatetracyclo[17.3.1.111,14.05,10]tetracosa-1(22),5,7,9,19(23),20-hexaene-2,2,4-trione]
[1]; from CC(C)(C)OC(=O)N1C[C@@H](CCCNc2cccc(S(=O)(=O)NC(=O)c3ccc(-n4ccc(OCCC(C)(C)C(F)(F)F)n4)nc3Cl)n2)CC1(C)C, 15-membered ring, K2CO3/CsF/3A MS, 21.2 mM, 130.0 °C, 2 steps
  ring closure, yield after HPLC: 51%
[2]
  pEC50: > 6.00
  Max. Activity: +++ (+++ is >60%)

## [2H]C([2H])(COc1ccn(-c2ccc3c(n2)N2C[C@@H](CCCNc4cccc(n4)S(=O)(=O)NC3=O)CC2(C)C)n1)CC1(C(F)(F)F)CC1 [Compound 270, (14S)-12,12-Dimethyl-8-(3-{3-[1-(trifluoromethyl)cyclopropyl]-2,2-dideuterio-propoxy}-1H-pyrazol-1-yl)-2λ^6-thia-3,9,11,18,23-pentaazatetracyclo[17.3.1.111,14.05,10]tetracosa-1(23),5(10),6,8,19,21-hexaene-2,2,4-trione]
[1]; from [2H]C([2H])(COc1ccn(-c2ccc(C(=O)NS(=O)(=O)c3cccc(NCCC[C@@H]4CN(C(=O)OC(C)(C)C)C(C)(C)C4)n3)c(Cl)n2)n1)CC1(C(F)(F)F)CC1, 15-membered ring, TFA/DCM, then K2CO3/CsF/3A MS, 27.0 mM, 150.0 °C, 2 steps
  ring closure, yield after HPLC: 44%
[2]
  pEC50: > 6.00
  Max. Activity: +++ (+++ is >60%)

## CC1(C)CC2CCCCn3ccc(n3)S(=O)(=O)NC(=O)c3ccc(-n4ccc(OCCCC5(C(F)(F)F)CC5)n4)nc3N1C2 (stereo not drawn) [Compound 275, 21,21-Dimethyl-4-(3-{3-[1-(trifluoromethyl)cyclopropyl]propoxy}-1H-pyrazol-1-yl)-10λ^6-thia-1,3,9,14,23-pentaazatetracyclo[17.2.1.111,14.02,7]tricosa-2,4,6,11(23),12-pentaene-8,10,10-trione]
[1]; from CC1(C)CC(CCCCn2ccc(S(=O)(=O)NC(=O)c3ccc(-n4ccc(OCCCC5(C(F)(F)F)CC5)n4)nc3Cl)n2)CN1, 15-membered ring, K2CO3/CsF/3A MS, 24.7 mM, 150.0 °C, 18.0 h
  ring closure, yield after HPLC: 47%
[2]
  pEC50: 5.52 to 6.00
  Max. Activity: ++ (++ is 30-60%)

## CC1(C)CC2CCn3ccc(n3)S(=O)(=O)NC(=O)c3ccc(-n4ccc(OCCCC5(C(F)(F)F)CC5)n4)nc3N1C2 (stereo not drawn) [Compound 273, 19,19-Dimethyl-4-(3-{3-[1-(trifluoromethyl)cyclopropyl]propoxy}-1H-pyrazol-1-yl)-10λ^6-thia-1,3,9,14,21-pentaazatetracyclo[15.2.1.111,14.02,7]henicosa-2,4,6,11(21),12-pentaene-8,10,10-trione]
[1]; from CC1(C)CC(CCn2ccc(S(=O)(=O)NC(=O)c3ccc(-n4ccc(OCCCC5(C(F)(F)F)CC5)n4)nc3Cl)n2)CN1, 13-membered ring, K2CO3/CsF/3A MS, 25.5 mM, 150.0 °C
  ring closure, yield after HPLC: 11%
[2]
  pEC50: > 6.00
  Max. Activity: + (+ is <30%)

## CC1(C)C[C@@H]2CCCn3ccc(n3)S(=O)(=O)NC(=O)c3ccc(-n4ccc(OCCC(C)(C)C(F)(F)F)n4)nc3N1C2 [Compound 221, (18S)-20,20-Dimethyl-4-[3-(4,4,4-trifluoro-3,3-dimethylbutoxy)-1H-pyrazol-1-yl]-10λ^6-thia-1,3,9,14,22-pentaazatetracyclo[16.2.1.111,14.02,7]docosa-2,4,6,11(22),12-pentaene-8,10,10-trione]
[1]; from CC(C)(C)OC(=O)N1C[C@@H](CCCn2ccc(S(=O)(=O)NC(=O)c3ccc(-n4ccc(OCCC(C)(C)C(F)(F)F)n4)nc3Cl)n2)CC1(C)C, 14-membered ring, K2CO3/CsF/3A MS, 22.0 mM, 130.0 °C, 2 steps
  ring closure, yield after HPLC: 21%
[2]
  pEC50: > 6.00
  Max. Activity: +++ (+++ is >60%)

## CC1(C)CC2CN1c1nc(-n3ccc(OCCCC4(C(F)(F)F)CC4)n3)ccc1C(=O)NS(=O)(=O)c1cccc(n1)NCCO2 (stereo not drawn) [Compound 157]
[1]; from CC1(C)CC(OCCNc2cccc(S(=O)(=O)NC(=O)c3ccc(-n4ccc(OCCCC5(C(F)(F)F)CC5)n4)nc3Cl)n2)CN1, 15-membered ring, K2CO3/CsF/4A MS, 105.0 mM, 150.0 °C
  ring closure, yield after HPLC: 34%
[2]
  pEC50: > 6.00
  Max. Activity: +++ (+++ is >60%)

## CC1(C)CC2CCCNc3ccc(cn3)S(=O)(=O)NC(=O)c3ccc(-n4ccc(OCCC5(C(F)(F)F)CC5)n4)nc3N1C2 (racemic) [Compound 62, 12,12-Dimethyl-8-(3-{2-[1-(trifluoromethyl)cyclopropyl]ethoxy}-1H-pyrazol-1-yl)-2λ^6-thia-3,9,11,18,20-pentaazatetracyclo[17.2.2.111,14.05,10]tetracosa-1(22),5,7,9,19(23),20-hexaene-2,2,4-trione]
[1]; from CC1(C)CC(CCCNc2ccc(S(=O)(=O)NC(=O)c3ccc(-n4ccc(OCCC5(C(F)(F)F)CC5)n4)nc3Cl)cn2)CN1, 16-membered ring, K2CO3/CsF/3A MS, 37.3 mM, 165.0 °C, 19.0 h
  ring closure, yield after HPLC: 6%
[2]
  pEC50: > 6.00
  Max. Activity: +++ (+++ is >60%)

## CC1(C)CC2CCCn3ccc(n3)S(=O)(=O)NC(=O)c3ccc(-n4ccc(OCCCC5(C(F)(F)F)CC5)n4)nc3N1C2 (racemic) [Compound 155, 20,20-Dimethyl-4-(3-{3-[1-(trifluoromethyl)cyclopropyl]propoxy}-1H-pyrazol-1-yl)-10λ^6-thia-1,3,9,14,22-pentaazatetracyclo[16.2.1.111,14.02,7]docosa-2(7),3,5,11(22),12-pentaene-8,10,10-trione]
[1]; from CC1(C)CC(CCCn2ccc(S(=O)(=O)NC(=O)c3ccc(-n4ccc(OCCCC5(C(F)(F)F)CC5)n4)nc3Cl)n2)CN1, 14-membered ring, K2CO3/CsF/3A MS, 49.7 mM, 140.0 °C, 16.0 h, 2 steps
  ring closure, yield after HPLC: 51%
[2]
  pEC50: > 6.00
  Max. Activity: +++ (+++ is >60%)

## CC(C)C(COc1ccn(-c2ccc3c(n2)N2C[C@@H](CCCNc4cccc(n4)S(=O)(=O)NC3=O)CC2(C)C)n1)C(C)C [Compound 227, (14S)-12,12-Dimethyl-8-{3-[3-methyl-2-(propan-2-yl)butoxy]-1H-pyrazol-1-yl}-2λ^6-thia-3,9,11,18,23-pentaazatetracyclo[17.3.1.111,14.05,10]tetracosa-1(23),5(10),6,8,19,21-hexaene-2,2,4-trione]
[1]; from CC(C)C(COc1ccn(-c2ccc(C(=O)NS(=O)(=O)c3cccc(NCCC[C@@H]4CNC(C)(C)C4)n3)c(Cl)n2)n1)C(C)C, 15-membered ring, K2CO3/CsF/4A MS, 73.3 mM, 150.0 °C
  ring closure, yield after HPLC: 20%
[2]
  pEC50: > 6.00
  Max. Activity: +++ (+++ is >60%)

## Cc1nn2cc1S(=O)(=O)NC(=O)c1ccc(-n3ccc(OCCC4(C(F)(F)F)CC4)n3)nc1N1CC(CCCC2)CC1(C)C (stereo not drawn) [Compound 71, 12,21,21-trimethyl-4-(3-{2-[1-(trifluoromethyl)cyclopropyl]ethoxy}-1H-pyrazol-1-yl)-10λ^6-thia-1,3,9,13,14-pentaazatetracyclo[17.2.1.111,14.02,7]tricosa-2,4,6,11(23),12-pentaene-8,10,10-trione]
[1]; from Cc1nn(CCCCC2CNC(C)(C)C2)cc1S(=O)(=O)NC(=O)c1ccc(-n2ccc(OCCC3(C(F)(F)F)CC3)n2)nc1Cl, 15-membered ring, K2CO3/CsF, 130.1 mM, 150.0 °C
  ring closure, yield after HPLC: 50%
[2]
  pEC50: < 5.52
  Max. Activity: + (+ is <30%)
